In ChEMBL document CHEMBL1201862, “PubChem BioAssay data set” (2004):
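How tested: cells in 96-well plates exposed to compound for 48 hours at five concentrations. GI50 is the concentration that inhibits growth by half.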 Activity calls are given as the source filed them. Cut-off read from the data, not from the text of the source: active = GI50 up to about 1.1 µM and inactive = higher.

How the values were obtained:
Assay in all cases: inhibition of tumour cell growth, NCI panel, 48 h
786-0 = test system: 786-0
A498 = test system: A498
A549 = test system: A549
BT-549 = test system: BT-549
CAKI-1 = test system: CAKI-1
CCRF-CEM = test system: CCRF-CEM
COLO 205 = test system: COLO 205
DU-145 = test system: DU-145
EKVX = test system: EKVX
HCC 2998 = test system: HCC 2998
HCT-116 = test system: HCT-116
HCT-15 = test system: HCT-15
HL-60 = test system: HL-60
HOP-62 = test system: HOP-62
HT-29 = test system: HT-29
Hs-578T = test system: Hs-578T
IGROV-1 = test system: IGROV-1
K562 = test system: K562
M14 = test system: M14
MCF7 = test system: MCF7
MDA-MB-231 = test system: MDA-MB-231
MDA-MB-435 = test system: MDA-MB-435
MDA-N = test system: MDA-N
MOLT-4 = test system: MOLT-4
Malme-3M = test system: Malme-3M
NCI-H226 = test system: NCI-H226
NCI-H23 = test system: NCI-H23
NCI-H460 = test system: NCI-H460
NCI-H522 = test system: NCI-H522
NCI/ADR-RES = test system: NCI/ADR-RES
OVCAR-3 = test system: OVCAR-3
OVCAR-4 = test system: OVCAR-4
OVCAR-5 = test system: OVCAR-5
OVCAR-8 = test system: OVCAR-8
PC-3 = test system: PC-3
RXF 393 = test system: RXF 393
SF-268 = test system: SF-268
SF-295 = test system: SF-295
SF-539 = test system: SF-539
SK-MEL-2 = test system: SK-MEL-2
SK-MEL-5 = test system: SK-MEL-5
SK-OV-3 = test system: SK-OV-3
SN12C = test system: SN12C
SNB-75 = test system: SNB-75
SR = test system: SR
T47D = test system: T47D
TK-10 = test system: TK-10
U-251 = test system: U-251
UACC-257 = test system: UACC-257
UACC-62 = test system: UACC-62
ACHN = test system: ACHN
KM12 = test system: KM12
LOX IMVI = test system: LOX IMVI
RPMI-8226 = test system: RPMI-8226
SK-MEL-28 = test system: SK-MEL-28
SNB-19 = test system: SNB-19
SW-620 = test system: SW-620
UO-31 = test system: UO-31

CCc1n[nH]c(=O)n1NC(=O)/C=C\C(=O)O
GI50 (786-0): > 100 µM (inactive) | GI50 (A498): > 100 µM (inactive) | GI50 (A549): > 100 µM (inactive) | GI50 (BT-549): > 100 µM (inactive) | GI50 (CAKI-1): > 100 µM (inactive) | GI50 (CCRF-CEM): > 100 µM (inactive) | GI50 (COLO 205): > 100 µM (inactive) | GI50 (DU-145): > 100 µM (inactive) | GI50 (EKVX): > 100 µM (inactive) | GI50 (HCC 2998): > 100 µM (inactive) | GI50 (HCT-116): > 100 µM (inactive) | GI50 (HCT-15): > 100 µM | GI50 (HL-60): > 100 µM (inactive) | GI50 (HOP-62): > 100 µM (inactive) | GI50 (HT-29): > 100 µM (inactive) | GI50 (Hs-578T): > 100 µM (inactive) | GI50 (IGROV-1): > 100 µM (inactive) | GI50 (K562): > 100 µM (inactive) | GI50 (M14): > 100 µM (inactive) | GI50 (MCF7): > 100 µM (inactive) | GI50 (MDA-MB-231): > 100 µM (inactive) | GI50 (MDA-MB-435): > 100 µM (inactive) | GI50 (MDA-N): > 100 µM (inactive) | GI50 (MOLT-4): > 100 µM (inactive) | GI50 (Malme-3M): > 100 µM (inactive) | GI50 (NCI-H226): > 100 µM (inactive) | GI50 (NCI-H23): > 100 µM (inactive) | GI50 (NCI-H460): > 100 µM (inactive) | GI50 (NCI-H522): > 100 µM (inactive) | GI50 (NCI/ADR-RES): > 100 µM (inactive) | GI50 (OVCAR-3): > 100 µM (inactive) | GI50 (OVCAR-4): > 100 µM (inactive) | GI50 (OVCAR-5): > 100 µM (inactive) | GI50 (OVCAR-8): > 100 µM (inactive) | GI50 (PC-3): > 100 µM (inactive) | GI50 (RXF 393): > 100 µM (inactive) | GI50 (SF-268): > 100 µM (inactive) | GI50 (SF-295): > 100 µM (inactive) | GI50 (SF-539): > 100 µM (inactive) | GI50 (SK-MEL-2): > 100 µM (inactive) | GI50 (SK-MEL-5): > 100 µM (inactive) | GI50 (SK-OV-3): > 100 µM (inactive) | GI50 (SN12C): > 100 µM (inactive) | GI50 (SNB-75): > 100 µM (inactive) | GI50 (SR): > 100 µM (inactive) | GI50 (T47D): > 100 µM (inactive) | GI50 (TK-10): > 100 µM (inactive) | GI50 (U-251): > 100 µM (inactive) | GI50 (UACC-257): > 100 µM (inactive) | GI50 (UACC-62): > 100 µM (inactive)

NC(=O)/C=c1/c2ccccc2n2nc3ccccc3c12
GI50 (786-0): 8.67 µM (inactive) | GI50 (A498): 32.1 µM (inactive) | GI50 (A549): 31.7 µM (inactive) | GI50 (ACHN): 13.6 µM (inactive) | GI50 (BT-549): 29.9 µM (inactive) | GI50 (CAKI-1): 20.1 µM (inactive) | GI50 (CCRF-CEM): 3.56 µM (inactive) | GI50 (COLO 205): 20.4 µM (inactive) | GI50 (DU-145): 37.8 µM (inactive) | GI50 (EKVX): 14.4 µM (inactive) | GI50 (HCC 2998): 17 µM (inactive) | GI50 (HCT-116): 4.82 µM (inactive) | GI50 (HCT-15): 12.2 µM | GI50 (HL-60): 3.91 µM (inactive) | GI50 (HOP-62): 26.1 µM (inactive) | GI50 (HT-29): 15.9 µM (inactive) | GI50 (Hs-578T): 31.2 µM (inactive) | GI50 (IGROV-1): 10.6 µM (inactive) | GI50 (K562): 15.3 µM (inactive) | GI50 (KM12): 14.3 µM (inactive) | GI50 (LOX IMVI): 4.78 µM (inactive) | GI50 (M14): 27.5 µM (inactive) | GI50 (MCF7): 26.9 µM (inactive) | GI50 (MDA-MB-231): 2.76 µM (inactive) | GI50 (MDA-MB-435): 16 µM (inactive) | GI50 (MDA-N): 15.6 µM (inactive) | GI50 (MOLT-4): 2.69 µM (inactive) | GI50 (Malme-3M): 21.9 µM (inactive) | GI50 (NCI-H23): 22.1 µM (inactive) | GI50 (NCI-H460): 25.8 µM (inactive) | GI50 (NCI-H522): 14.1 µM (inactive) | GI50 (NCI/ADR-RES): 16.1 µM (inactive) | GI50 (OVCAR-3): 15.7 µM (inactive) | GI50 (OVCAR-4): 10.3 µM (inactive) | GI50 (OVCAR-5): 29.9 µM (inactive) | GI50 (OVCAR-8): 8.71 µM (inactive) | GI50 (PC-3): 11 µM (inactive) | GI50 (RPMI-8226): 4.98 µM (inactive) | GI50 (RXF 393): 17.1 µM (inactive) | GI50 (SF-268): 10.2 µM (inactive) | GI50 (SF-295): 31.1 µM (inactive) | GI50 (SF-539): 13.3 µM (inactive) | GI50 (SK-MEL-28): 16.8 µM (inactive) | GI50 (SK-MEL-2): 15.6 µM (inactive) | GI50 (SK-MEL-5): 35.6 µM (inactive) | GI50 (SK-OV-3): 16.3 µM (inactive) | GI50 (SN12C): 19.1 µM (inactive) | GI50 (SNB-19): 20.1 µM (inactive) | GI50 (SR): 2.68 µM (inactive) | GI50 (SW-620): 17.5 µM (inactive) | GI50 (T47D): 7.01 µM (inactive) | GI50 (TK-10): 23.3 µM (inactive) | GI50 (U-251): 12.9 µM (inactive) | GI50 (UACC-257): 20.3 µM (inactive) | GI50 (UACC-62): 19.4 µM (inactive) | GI50 (UO-31): 19.2 µM (inactive)
